Test results from paper PMC8281026, “Peptide Based Inhibitors of Protein Binding to the Mitogen-Activated Protein Kinase Docking Groove” (Frontiers in Molecular Biosciences, 2021).

How the values were obtained:
HEK-293T cells [1] = test: Cellular uptake by fluorescence microscopy; type: cell-based; settings: fluorescence microscopy
Method: (§1) The cellular uptake of the fluorescent labeled peptide into HEK-293T cells were analyzed by fluorescence microscopy (Cytation 3, BioTek Instruments) and two peptides were further examined by confocal laser scanning microscopy (Zeiss LSM-710 system). Cells were incubated with peptides in serum-free medium (DMEM) for 3 h at 37 °C and then washed twice with 200 μl of serum-free medium before analyzing.

[2] = tested on: ERK1/2 phosphorylation in HEK-293T cells; test: ERK phosphorylation level in cells by Western-blot after EGF stimulation; type: cell-based; settings: pre-treated 20 μM, 5 h, EGF 100 ng/ml
Method: To study the effect of peptides on the ERK pathway EGF stimulation and Western-blot analysis were used. HEK-293T cells were plated on 48-well plate and were serum-starved for overnight. Then cells were treated with the Cf-peptide at 20µM for 5 h in 100 μL DMEM and then stimulated by addition of EGF (Sigma, E9644) in 100 ng/mL concentration. Stimulation was terminated at different time points by adding 35 μL 4× SDS loading buffer. Cells were lysed and 10 μL of each sample was subjected to SDS-PAGE. […] The intensities of the protein bands were determined by densitometry and monitored after the stimulation in time. […] Activated (i.e., phosphorylated) ERK and p38 were detected by phospho-p44/42 MAPK (ERK1/2) (see above) and phospho-p38 MAPK (Thr180/Tyr182) rabbit primary antibody (Cell Signaling, #9215) in 1:2000 dilution, respectively. The total ERK and p38 content of the samples were determined by anti-p44/42 MAPK (ERK1/2) mouse primary antibody and anti-p38α MAPK mouse mAb (Cell Signaling, #9228), respectively. […] As secondary antibody anti-rabbit antibody (IRDye® 800CW Goat anti-Rabbit IgG, #926-32211) in 1:5,000 and secondary anti-mouse antibody (IRDye® 680CW Goat anti-Mouse IgG, #926-68070 in 1: 10,000 were used. Protein bands were detected and quantified with LI-COR Odyssey® Clx infrared imaging system. Statistical analysis was done using two-sided independent Student’s t-test.

HL-60 cells [3] = test: Cellular uptake by flow cytometry; type: cell-based, human; settings: for fluorescence intensity relative to peptide 9: 90 min, HL-60, flow cytometry, trypsin treated
Method: (§2) To study the cellular uptake of fluorescent labeled peptides and conjugate by flow cytometry, 10^5 HL-60 cells per well were plated on 24-well plates and were incubated for 24 h at 37°C. Then cells were treated with the solution of compounds in serum-free media for 90 min. The cellular uptake was analysed at 1, 5 and 10 µM concentrations. Cells treated with serum-free media were the control. At the end of incubation, treatment solutions were removed, and the cells were treated with 100 μL trypsin for 2 min to remove the membrane proteins in order to eliminate non-specific binding of conjugates. The effect of trypsin was terminated by 900 μL HPMI containing 10% fetal calf serum, and the cell suspensions were transferred into FACS-tubes. After centrifugation at 216g at 4°C for 5 min the supernatant was removed. Then cells were resuspended in 500 µl HPMI, and the intracellular fluorescence intensity of HL-60 cells was monitored (on channel FITC LP505; emission at λ = 505 nm; LP 505, BP 530/30) by flow cytometry (BD LSR II, BD Bioscience, San Jose, CA, equipped with 488 nm; Coherent Sapphire, 22 mW laser.) which is proportional to the cellular uptake. Data were analysed with FACSDiVa 5.0 software. Statistical analysis was done using two-sided independent Student’s t-test.

HL-60 cells [4] = test: Percent of live cells by flow cytometry; type: cell-based, human; settings: 10 µM, 90 min, serum-free media, HL-60, three independent measurements
Method: as §2

HEK-293T cells [5] = test: Intracellular distribution by confocal laser scanning microscopy; type: cell-based; settings: 10 and 20 µM, 3 h
Method: as §1

Row | Substance | internalization of the conjugate into HEK-293T cells (HEK-293T cells [1]; after 5 h of treatment at 5 µM (Figure 4 legend: 20 μM, 5 h)) | amount of phosphorylated ERK [2] | fluorescence intensity relative to peptide 9 (HL-60 cells [3]; 1 µM) [times] | fluorescence intensity relative to peptide 9 (HL-60 cells [3]; 5 µM) [times] | fluorescence intensity relative to peptide 9 (HL-60 cells [3]; 10 µM) [times] | internalization compared to the peptide without the Dabcyl-group (HL-60 cells [3]; at different concentrations) | internalization into HEK-293T cells (HEK-293T cells [1]; serum-free medium, 37 °C, up to 3 h, Figure 1) | number of live cells (HL-60 cells [4]) [%] | intracellular distribution (HEK-293T cells [5])
1 | Cf-SLQRKKPPWLKLDIPSC(CH2-CO-RRRRRRRR-NH2)-NH2 [compound 3, Cf-labeled octaarginine conjugate] | showed internalization | some reduction | – | – | – | – | – | – | –
2 | Dabcyl-RRRPPWLRLDIRRK(Cf)-NH 2 [compound 11] | – | – | 9.2 | 23.5 | 16.9 | 10–24 times | increased the peptide internalization | 40 | more diffuse distribution
